From US4803217A, “Hapalindolinone compounds as vassopressin antagonists” (Merck & Co., Inc., priority 1986, dated 1989)

Columns and labels:
[1] = target: vasopressin-stimulated adenylate cyclase, Kidney (V2); test: Inhibition of vasopressin-stimulated adenylate cyclase in kidney medulla (V2 antagonism); assay type: biochemical; settings: conversion of ATP to cAMP, mean, n = 2, read-out: IC50 Values, AVP-stimulated Ad. Cyclase, Kidney (V2)
Text: (§1) The table summarizes the in vitro potency of the compound to compete for ^3 H-vasopressin binding at two proposed vasopressin receptor subtypes (V1, V2), as well as to inhibit vasopressin-stimulated adenylate cyclase-activity, a further measure of vasopressin antagonism.
Vasopressin exerts its antidiuretic effects on the kidney through the stimulation of adenylate cyclase activity. Vasopressin-stimulated adenylate cyclase in kidney medulla, therefore, is used as a functional assay to determine the potencies of the test compound as V2 -vasopressin antagonists. In this assay, the IC50 value obtained for the compound IA (see Table IV) is a measure of its potency to inhibit the vasopressin-stimulated conversion of ATP to CAMP by adenylate cyclase. This method was adapted from Seamon et al., PNAS 78: 3363-3367 (1981).

[2] = target: T1, V2 (antidiuretic) vasopressin receptor, kidney medulla crude membrane preparation (Rattus norvegicus, UniProt Q00788); test: [3H]Arginine Vasopressin Binding Assay, kidney medulla (V2); settings: kidney medulla membranes; mean with standard error, n = 3; read-out: IC50 Values, 3H-Arg8-Vasopressin Binding, Kidney (V2)
T1 construct: crude membrane preparation of rat liver (V1 receptor) or kidney medulla (V2 receptor); from tissue; host or cells: kidney medulla, crude membrane preparation
T1 sequence (Q00788 whole entry): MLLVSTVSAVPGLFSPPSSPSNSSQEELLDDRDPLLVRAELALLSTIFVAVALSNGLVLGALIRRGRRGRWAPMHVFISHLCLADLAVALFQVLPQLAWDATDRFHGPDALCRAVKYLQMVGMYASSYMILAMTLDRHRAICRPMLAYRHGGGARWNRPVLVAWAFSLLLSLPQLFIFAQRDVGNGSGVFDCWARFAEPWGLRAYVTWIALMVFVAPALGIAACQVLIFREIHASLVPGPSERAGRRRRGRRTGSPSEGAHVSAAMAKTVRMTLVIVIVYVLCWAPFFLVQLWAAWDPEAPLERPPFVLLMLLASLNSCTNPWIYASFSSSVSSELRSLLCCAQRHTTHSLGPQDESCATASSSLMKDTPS
Text: as §1
(§2) The [^3 H]Arginine Vasopressin Binding Assay is an in vitro procedure which was adapted from the method of Guillon et al., Eur. J. Pharmacol. 85: 219-304 (1982). It measures the relative affinity of the compound for vasopressin receptor(s) labelled by [^3 H]vasopressin. Vasopressin receptors have been divided into two subtypes pharmacollogically: the V1 (pressor)-receptor found in liver and vascular smooth muscle and the V2 (antidiuretic) receptor found in kidney medulla. The binding assay uses a crude membrane preparation of rat liver (V1 receptor) or kidney medulla (V2 receptor) which is incubated with [^3 H]vaspopressin in the presence or absence of the test compound. The IC50 values (concentrations to inhibit [^3 H]vasopressin binding by 50%) for the compound (see Table VI) are measures of their potencies and are inversely related to their affinities.

[3] = target: T2, V1 (pressor) vasopressin receptor, rat liver crude membrane preparation (Rattus norvegicus, UniProt P30560); test: [3H]Arginine Vasopressin Binding Assay, liver (V1); settings: rat liver membranes; mean, n = 3; read-out: IC50 Values, 3H-Arg8-Vasopressin Binding, Liver (V1)
T2 construct: crude membrane preparation of rat liver (V1 receptor); from tissue; host or cells: rat liver, crude membrane preparation
T2 sequence (P30560 whole entry): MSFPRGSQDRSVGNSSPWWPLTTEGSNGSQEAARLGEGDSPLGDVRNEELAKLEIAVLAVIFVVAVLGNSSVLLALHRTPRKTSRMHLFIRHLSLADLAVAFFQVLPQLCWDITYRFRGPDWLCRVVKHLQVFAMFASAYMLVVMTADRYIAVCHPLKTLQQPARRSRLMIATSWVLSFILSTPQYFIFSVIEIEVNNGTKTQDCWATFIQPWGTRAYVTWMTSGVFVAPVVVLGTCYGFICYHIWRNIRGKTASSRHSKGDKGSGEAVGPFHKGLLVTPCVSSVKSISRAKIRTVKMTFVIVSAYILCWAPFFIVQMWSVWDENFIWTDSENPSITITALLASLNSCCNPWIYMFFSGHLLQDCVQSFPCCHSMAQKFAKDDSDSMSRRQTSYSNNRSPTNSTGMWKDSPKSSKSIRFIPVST
Text: as §1, §2

[C-]#[N+]C12C(C(C(=C)C)CC(Cl)C1(C)C=C)C21C(=O)Nc2ccccc21 (stereo not drawn) [Formula IA, Hapalindolinone A]
IC50 [1]: 44.6 µM | IC50 [2]: 37.5 ± 7.6 µM | IC50 [3]: > 100 µM
